# Measurements from patent publication US9963453B2, “Substituted pyrazino[1,2-a]indoles as sigma receptor activity modulators” (LABORATORIOS DEL DR. ESTEVE S.A., priority 2013, dated 2018).
# Molecular target: human sigma 1 receptor (Homo sapiens (Human), UniProt Q99720)
# Assay: Human Sigma 1 Receptor Radioligand Assay
# Assay type: binding
# Settings: transfected HEK-293 membranes, 5 nM [3H](+)-pentazocine as radioligand, 37° C., 120 minutes
# Method: Human Sigma 1 Receptor Radioligand Assay
# To investigate binding properties of sigma 1 receptor ligands to human sigma 1 receptor, transfected HEK-293 membranes and [^3H](+)-pentazocine (Perkin Elmer, NET-1056), as the radioligand, were used. The assay was carried out with 7 μg of membrane suspension, 5 nM of [^3H](+)-pentazocine in either absence or presence of either buffer or 10 μM Haloperidol for total and non-specific binding, respectively. Binding buffer contained Tris-HCl 50 mM at pH 8. Plates were incubated at 37° C. for 120 minutes. After the incubation period, the reaction mix was then transferred to MultiScreen HTS, FC plates (Millipore), filtered and plates were washed 3 times with ice-cold 10 mM TrisHCL (pH7.4). Filters were dried and counted at approximately 40% efficiency in a MicroBeta scintillation counter (Perkin-Elmer) using EcoScint liquid scintillation cocktail.
# human sigma 1 receptor, sequence (Q99720 whole entry): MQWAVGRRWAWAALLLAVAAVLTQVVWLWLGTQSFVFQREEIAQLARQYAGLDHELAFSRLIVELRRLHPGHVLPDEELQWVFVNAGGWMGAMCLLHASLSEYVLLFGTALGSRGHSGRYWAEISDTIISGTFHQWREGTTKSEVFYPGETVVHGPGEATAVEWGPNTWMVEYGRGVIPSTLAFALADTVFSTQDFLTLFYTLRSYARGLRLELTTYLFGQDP
row,SMILES,Ki [nM]
1,"CCC(C(=O)N1CCn2c(cc3ccccc32)C1)N1CCN(C)CC1 (centres unmarked) [Example 38, 1-(3,4-dihydropyrazino[1,2-a]indol-2(1H)-yl)-2-(4-methylpiperazin-1-yl)butan-1-one]",89.3
2,"CCC(C(=O)N1CCn2c(cc3ccccc32)C1)N(C)CCN(C)C (centres unmarked) [Example 39, 1-(3,4-dihydropyrazino[1,2-a]indol-2(1H)-yl)-2-((2-(dimethylamino)ethyl)(methyl)amino)butan-1-one]",427
3,"CC(CN1CCN(C)CC1)C(=O)N1CCn2c(cc3ccccc32)C1 (centres unmarked) [Example 41, 1-(3,4-dihydropyrazino[1,2-a]indol-2(1H)-yl)-2-methyl-3-(4-methylpiperazin-1-yl)propan-1-one]",73
4,"CN(C)CCCC(=O)N1CCN2c3ccccc3CC2C1 (centres unmarked) [Example 43, 4-(dimethylamino)-1-(3,4,10,10a-tetrahydropyrazino[1,2-a]indol-2(1H)-yl)butan-1-one]",151
5,"CN1CCN(C(C)(C)C(=O)N2CCN3c4ccccc4CC3C2)CC1 (centres unmarked) [Example 44, 2-methyl-2-(4-methylpiperazin-1-yl)-1-(3,4,10,10a-tetrahydropyrazino[1,2-a]indol-2(1H)-yl)propan-1-one]",175
6,"CC[C@@H](C(=O)N1CCn2c(cc3ccccc32)C1)N1CCN(C)CC1 [Example 46, (S)-1-(3,4-dihydropyrazino[1,2-a]indol-2(1H)-yl)-2-(4-methylpiperazin-1-yl)butan-1-one]",75.5
7,"C[C@H](CN1CCN(C)CC1)C(=O)N1CCn2c(cc3ccccc32)C1 [Example 47, (R)-1-(3,4-dihydropyrazino[1,2-a]indol-2(1H)-yl)-2-methyl-3-(4-methylpiperazin-1-yl)propan-1-one]",49.5
8,"C[C@@H](CN1CCN(C)CC1)C(=O)N1CCn2c(cc3ccccc32)C1 [Example 48, (S)-1-(3,4-dihydropyrazino[1,2-a]indol-2(1H)-yl)-2-methyl-3-(4-methylpiperazin-1-yl)propan-1-one]",142
9,"C[C@@H](CC(=O)N1CCn2c(cc3ccccc32)C1)N1CCN(C)CC1 [Example 49, (S)-1-(3,4-dihydropyrazino[1,2-a]indol-2(1H)-yl)-3-(4-methylpiperazin-1-yl)butan-1-one]",91.7
10,"C[C@H](CC(=O)N1CCn2c(cc3ccccc32)C1)N1CCN(C)CC1 [Example 50, (R)-1-(3,4-dihydropyrazino[1,2-a]indol-2(1H)-yl)-3-(4-methylpiperazin-1-yl)butan-1-one]",251
11,"C[C@H](C(=O)N1CCN2c3ccccc3C[C@H]2C1)N1CCN(C2CCCCC2)CC1 [Example 51, (R)-2-(4-cyclohexylpiperazin-1-yl)-1-((S)-3,4,10,10a-tetrahydropyrazino[1,2-a]indol-2(1H)-yl)propan-1-one]",59.9
12,"C[C@@H](C(=O)N1CCN2c3ccccc3C[C@@H]2C1)N1CCN(C2CCCCC2)CC1 [Example 52, (S)-2-(4-cyclohexylpiperazin-1-yl)-1-((R)-3,4,10,10a-tetrahydropyrazino[1,2-a]indol-2(1H)-yl)propan-1-one]",142
13,"C[C@@H](C(=O)N1CCN2c3ccccc3C[C@H]2C1)N1CCN(C2CCCCC2)CC1 [Example 53, (S)-2-(4-cyclohexylpiperazin-1-yl)-1-((S)-3,4,10,10a-tetrahydropyrazino[1,2-a]indol-2(1H)-yl)propan-1-one]",94.7
14,"C[C@H](C(=O)N1CCN2c3ccccc3C[C@@H]2C1)N1CCN(C2CCCCC2)CC1 [Example 54, (R)-2-(4-cyclohexylpiperazin-1-yl)-1-((R)-3,4,10,10a-tetrahydropyrazino[1,2-a]indol-2(1H)-yl)propan-1-one]",71.6
